Reference: paper PMC8228600, “Design, Synthesis, In Vitro and In Vivo Evaluation of Heterobivalent SiFAlin-Modified Peptidic Radioligands Targeting Both Integrin αvβ3 and the MC1 Receptor—Suitable for the Specific Visualization of Melanomas?” (Pharmaceuticals, 2021)

Experiments:
Set-up in all cases: species or system nude mice (Balb/cAnNRj-Foxn1nu/nu)
[1] = Ex vivo biodistribution: uptake in B16F10 tumors and tumor-to-organ ratios; conditions: male, Balb/cAnNRj-Foxn1nu/nu (nude), mouse, iv, total radioactivity; for tissue uptake: B16F10 tumor (MC1R-positive); for tissue uptake / tissue uptake at 1.5 h: ex vivo after PET/CT scan, i.v., n = 3; for tissue to tissue ratio: ex vivo biodistribution, mean (n = 3) ± SD; for tissue uptake at 1.5 h: B16F10 tumor
Experimental: (§1) For the evaluation of the in vivo pharmacokinetics, the two most promising HBPLs—[^18F]2 with the highest affinity to both target receptors and [^18F]4 with the highest hydrophilicity and still reasonable binding affinities—were selected. For PET/CT imaging, 6-week-old male nude mice (Balb/cAnNRj-Foxn1^nu/nu) were subcutaneously injected with 5 × 10^5 B16F10 cells into the right flank and 2.0–2.5 × 10^6 U87MG cells into the left flank to generate the respective receptor-positive tumors. When the tumors reached a sufficient size for imaging, each mouse was administered 4.15 ± 2.28 MBq of [^18F]2 or 3.95 ± 2.06 MBq of [^18F]4 via the lateral tail vein under isoflurane anesthesia. To determine the receptor specificity of both peptide parts of the labeled HBPLs and their relative contribution to overall tumor uptake, blocking experiments were also performed. […] After i.v. injection of the tracers, a dynamic PET scan, followed by a CT scan, was performed. The resulting PET/CT images and time–activity curves (TACs) are depicted in Figure 6, Figure 7 and Figure 8. After completion of the diagnostic scans, the mice were sacrificed, their organs (blood, spleen, liver, kidney, pancreas, lung, heart, brain, bone, muscle, tail, tumors, stomach, colon and small intestine) were collected and measured in a γ-counter for ex vivo biodistribution (see Supplementary Materials Table S1 for detailed results).
(§2) Each male nude mouse (six weeks old) was injected subcutaneously with 5 × 10^5 B16F10 cells into the right flank and 2.0–2.5 × 10^6 U87MG cells into the left flank. The health status and tumor growth of the mice were monitored regularly until the animals could be examined after 15–21 days, depending on the tumor size. For the in vivo experiments, the ^18F-radiolabeled compound was diluted in 0.9% saline to give a final EtOH concentration of <10%. Each mouse was injected with 4.15 ± 2.28 MBq of [^18F]2 or 3.95 ± 2.06 MBq of [^18F]4 via the lateral tail vein under isoflurane anesthesia. […] Each ^18F-labeled compound was studied with or without blocking in at least three mice. Mice were measured under isoflurane anesthesia in a small PET/SPECT/CT animal imaging system. First, a dynamic PET scan was performed over 90 min and the scan was framed in 29 timeframes (10 × 1 min, 10 × 2 min, 6 × 5 min, 3 × 10 min). Images were reconstructed using 12 iterations, a maximum likelihood expectation maximization (MLEM) algorithm including corrections for scattered radiation and decay and a voxel size of 0.5 mm. All PET scans were immediately followed by CT acquisition at a voltage of 45 kV and a current of 400 μA. The images were reconstructed using the filtered back projection (FBP) algorithm with a voxel size of 250 μm. The analysis of the data, including the generation of TACs of the kidneys, liver and tumors and the MIPs, was performed via PMOD (v3.8). For ex vivo biodistribution, the mice were sacrificed directly after the PET/CT scan. Organs (blood, spleen, liver, kidneys, pancreas, lungs, heart, brain, bone, muscle, tail, tumors, stomach, colon and small intestine) were collected, weighed and their radioactivity measured in a γ-counter. The percentage injected dose per gram (% ID/g) of each tissue was calculated from the determined values, organ weights, reference values and injected activity.

[2] = system: MC1R-positive B16F10 tumors; assay: as above; conditions: NDP blocking (20 μg coinjected); ex vivo after PET/CT scan; i.v.; n = 3
Experimental: as §1, §2

[3] = Ex vivo biodistribution: uptake in U87MG tumors and tumor-to-organ ratios; conditions: male, Balb/cAnNRj-Foxn1nu/nu (nude), mouse, iv, total radioactivity; for tissue uptake: U87MG tumor (integrin αvβ3-positive); for tissue uptake / tissue uptake at 1.5 h: ex vivo after PET/CT scan, i.v., n = 3; for tissue to tissue ratio: ex vivo biodistribution, mean (n = 3) ± SD; for tissue uptake at 1.5 h: U87MG tumor
Experimental: as §1, §2

[4] = system: integrin αvβ3-positive U87MG tumors; assay: as above; conditions: c(RGDyK) blocking (200 μg coinjected); ex vivo after PET/CT scan; i.v.; n = 3
Experimental: as §1, §2

[5] = NDP blocking (20 μg coinjected)
[6] = c(RGDyK) blocking (200 μg coinjected)
[7] = double blocking (NDP + c(RGDyK))
[8] = B16F10 tumor / blood, without blocking, read-out: tumor/blood ratio, B16F10
[9] = B16F10 tumor / kidneys, without blocking, read-out: tumor/kidneys ratio, B16F10
[10] = B16F10 tumor / liver, without blocking, read-out: tumor/liver ratio, B16F10
[11] = B16F10 tumor / muscle, without blocking, read-out: tumor/muscle ratio, B16F10
[12] = U87MG tumor / blood, without blocking, read-out: tumor/blood ratio, U87MG
[13] = U87MG tumor / kidneys, without blocking, read-out: tumor/kidneys ratio, U87MG
[14] = U87MG tumor / liver, without blocking, read-out: tumor/liver ratio, U87MG
[15] = U87MG tumor / muscle, without blocking, read-out: tumor/muscle ratio, U87MG

SMILES	tissue uptake [1, 5] [%ID/g]	tissue uptake [1, 6] [%ID/g]	tissue uptake [1, 7] [%ID/g]	tissue uptake ([1]; without blocking) [%ID/g]	tissue to tissue ratio [1, 8]	tissue to tissue ratio [1, 9]	tissue to tissue ratio [1, 10]	tissue to tissue ratio [1, 11]	tissue uptake at 1.5 h ([1]; without blocking) [%ID/g]	ID/g, B16F10 tumor [2] [% ID/g]	tissue uptake [3, 5] [%ID/g]	tissue uptake [3, 6] [%ID/g]	tissue uptake [3, 7] [%ID/g]	tissue uptake ([3]; without blocking) [%ID/g]	tissue to tissue ratio [3, 12]	tissue to tissue ratio [3, 13]	tissue to tissue ratio [3, 14]	tissue to tissue ratio [3, 15]	tissue uptake at 1.5 h ([3]; without blocking) [%ID/g]	ID/g, U87MG tumor [4] [% ID/g]
CCCC[C@H](NC(=O)CNC(=O)CNC(=O)CCOCCOCCOCCOCCC(=O)NCCCN(CCCNC(=O)CCOCCOCCOCCOCCC(=O)NCCCC[C@@H]1NC(=O)[C@@H](Cc2ccccc2)NC(=O)[C@H](CC(=O)O)NC(=O)CNC(=O)[C@H](CCCNC(=N)N)NC1=O)CC(=O)N[C@@H](CCCCNC(=O)CCC[N+](C)(C)Cc1ccc([Si](F)(C(C)(C)C)C(C)(C)C)cc1)C(N)=O)C(=O)N[C@H]1CC(=O)NCCCC[C@@H](C(N)=O)NC(=O)[C@H](Cc2c[nH]c3ccccc23)NC(=O)[C@H](CCCNC(=N)N)NC(=O)[C@@H](Cc2ccccc2)NC(=O)[C@H](Cc2c[nH]cn2)NC1=O [[^18F]2]	1.83 ± 0.24	1.98 ± 0.18	1.14 ± 0.42	2.32 ± 0.49	2.42 ± 0.73	0.19 ± 0.1	0.16 ± 0.11	0.68 ± 0.41	2.32 ± 0.49	1.83 ± 0.24	3.19 ± 0.33	1.48 ± 0.12	1 ± 0.11	2.33 ± 0.46	2.4 ± 0.67	0.18 ± 0.02	0.14 ± 0.03	0.79 ± 0.66	2.33 ± 0.46	1.48 ± 0.12
CCCC[C@H](NC(=O)CNC(=O)CNC(=O)CCOCCOCCOCCOCCOCCOCCOCCOCCOCCC(=O)NCCCN(CCCNC(=O)CCOCCOCCOCCOCCOCCOCCOCCOCCOCCC(=O)NCCCC[C@@H]1NC(=O)[C@@H](Cc2ccccc2)NC(=O)[C@H](CC(=O)O)NC(=O)CNC(=O)[C@H](CCCNC(=N)N)NC1=O)CC(=O)N[C@@H](CCCCNC(=O)CCC[N+](C)(C)Cc1ccc([Si](F)(C(C)(C)C)C(C)(C)C)cc1)C(N)=O)C(=O)N[C@H]1CC(=O)NCCCC[C@@H](C(N)=O)NC(=O)[C@H](Cc2c[nH]c3ccccc23)NC(=O)[C@H](CCCNC(=N)N)NC(=O)[C@@H](Cc2ccccc2)NC(=O)[C@H](Cc2c[nH]cn2)NC1=O [[^18F]4]	1.33 ± 0.27	2.29 ± 0.24	2.49 ± 0.09	2.58 ± 0.86	4.36 ± 1.37	0.38 ± 0.24	0.36 ± 0.23	38.6 ± 9.24	2.58 ± 0.86	1.33 ± 0.27	2.53 ± 0.15	2.67 ± 0.66	0.9 ± 0.05	3.92 ± 1.31	5.08 ± 0.75	0.4 ± 0.07	0.39 ± 0.14	45.7 ± 8.62	3.92 ± 1.31	2.67 ± 0.66
